{
  "source": "ChEMBL document CHEMBL5465560",
  "about": "“Selectivity Literature for EUbOPEN Chemogenomic Library” (2024)",
  "key": {"[1]": {"molecular_target": "Serine/threonine-protein kinase B-raf (Homo sapiens) (UniProt P15056)", "sequence (P15056 whole entry)": "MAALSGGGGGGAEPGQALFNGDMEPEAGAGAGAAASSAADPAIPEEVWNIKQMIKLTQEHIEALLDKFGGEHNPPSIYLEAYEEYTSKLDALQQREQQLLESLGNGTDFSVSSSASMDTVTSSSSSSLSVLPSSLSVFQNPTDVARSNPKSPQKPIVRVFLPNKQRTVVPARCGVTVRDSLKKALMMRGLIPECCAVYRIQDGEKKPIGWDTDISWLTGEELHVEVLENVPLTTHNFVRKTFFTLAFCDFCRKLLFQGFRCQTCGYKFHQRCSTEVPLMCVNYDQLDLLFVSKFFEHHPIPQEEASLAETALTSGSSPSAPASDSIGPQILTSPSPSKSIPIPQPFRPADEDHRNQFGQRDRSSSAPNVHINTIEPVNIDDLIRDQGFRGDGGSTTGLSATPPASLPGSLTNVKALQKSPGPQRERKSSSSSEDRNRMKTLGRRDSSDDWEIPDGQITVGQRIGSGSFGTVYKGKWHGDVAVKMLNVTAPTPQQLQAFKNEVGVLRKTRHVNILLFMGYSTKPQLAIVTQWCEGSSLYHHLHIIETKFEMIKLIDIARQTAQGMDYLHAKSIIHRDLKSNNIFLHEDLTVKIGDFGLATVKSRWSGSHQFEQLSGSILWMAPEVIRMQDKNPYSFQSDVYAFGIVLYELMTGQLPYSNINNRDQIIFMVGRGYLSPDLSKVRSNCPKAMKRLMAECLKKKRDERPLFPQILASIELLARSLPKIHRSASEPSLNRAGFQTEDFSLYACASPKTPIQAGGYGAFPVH", "assay": "Selectivity interaction (Kinase panel (KiNativ target engagement assay in Jurkat cells)) EUB0001635a BRAF", "assay_type": "cell-based", "settings": "Selectivity number of off-targets 0.0, Selectivity number of targets 233.0, Source Knowledge https://www.sciencedirect.com/science/article/pii/S2451945619300674?via%3Dihub, at 1 µM"}, "[2]": {"molecular_target": "T1, Tyrosine-protein kinase JAK3 (Homo sapiens) (UniProt P52333)", "T1 sequence (whole entry)": "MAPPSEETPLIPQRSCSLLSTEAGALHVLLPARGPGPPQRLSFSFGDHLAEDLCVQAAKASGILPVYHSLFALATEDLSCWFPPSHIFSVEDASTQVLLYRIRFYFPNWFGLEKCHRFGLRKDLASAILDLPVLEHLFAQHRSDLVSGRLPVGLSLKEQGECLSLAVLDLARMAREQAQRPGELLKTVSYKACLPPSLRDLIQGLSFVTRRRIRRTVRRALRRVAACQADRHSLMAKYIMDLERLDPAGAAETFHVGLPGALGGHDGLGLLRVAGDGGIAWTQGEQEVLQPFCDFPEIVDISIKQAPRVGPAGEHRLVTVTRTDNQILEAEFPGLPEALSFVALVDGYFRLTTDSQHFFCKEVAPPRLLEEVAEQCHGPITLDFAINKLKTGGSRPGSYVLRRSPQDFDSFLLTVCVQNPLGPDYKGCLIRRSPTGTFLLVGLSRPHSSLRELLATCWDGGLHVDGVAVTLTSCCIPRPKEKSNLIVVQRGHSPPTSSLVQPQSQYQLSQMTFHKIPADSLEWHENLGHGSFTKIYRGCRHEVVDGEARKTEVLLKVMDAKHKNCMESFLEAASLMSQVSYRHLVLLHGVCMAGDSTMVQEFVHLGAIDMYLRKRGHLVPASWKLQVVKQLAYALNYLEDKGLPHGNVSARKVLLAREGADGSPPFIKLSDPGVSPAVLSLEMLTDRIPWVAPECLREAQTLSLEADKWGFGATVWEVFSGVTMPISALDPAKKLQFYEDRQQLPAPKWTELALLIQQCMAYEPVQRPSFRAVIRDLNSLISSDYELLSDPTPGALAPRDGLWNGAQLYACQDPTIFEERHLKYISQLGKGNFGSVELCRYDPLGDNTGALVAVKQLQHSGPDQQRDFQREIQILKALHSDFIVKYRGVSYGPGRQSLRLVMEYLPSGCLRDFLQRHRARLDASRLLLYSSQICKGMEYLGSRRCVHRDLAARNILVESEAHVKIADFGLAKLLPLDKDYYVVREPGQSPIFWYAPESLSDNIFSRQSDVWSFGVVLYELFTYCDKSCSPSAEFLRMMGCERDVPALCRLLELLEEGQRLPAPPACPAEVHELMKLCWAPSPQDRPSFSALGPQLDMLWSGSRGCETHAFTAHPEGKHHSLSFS", "assay": "Selectivity interaction (KinomeScan (DiscoverX)) EUB0000695a JAK3", "settings": "at 100 nM"}, "[3]": {"molecular_target": "Cyclin-dependent kinase 2 (Homo sapiens, UniProt P24941)", "settings": "at 10 µM"}, "[4]": {"molecular_target": "Serine/threonine-protein kinase 32A (Homo sapiens) (UniProt Q8WU08)", "sequence (Q8WU08 whole entry)": "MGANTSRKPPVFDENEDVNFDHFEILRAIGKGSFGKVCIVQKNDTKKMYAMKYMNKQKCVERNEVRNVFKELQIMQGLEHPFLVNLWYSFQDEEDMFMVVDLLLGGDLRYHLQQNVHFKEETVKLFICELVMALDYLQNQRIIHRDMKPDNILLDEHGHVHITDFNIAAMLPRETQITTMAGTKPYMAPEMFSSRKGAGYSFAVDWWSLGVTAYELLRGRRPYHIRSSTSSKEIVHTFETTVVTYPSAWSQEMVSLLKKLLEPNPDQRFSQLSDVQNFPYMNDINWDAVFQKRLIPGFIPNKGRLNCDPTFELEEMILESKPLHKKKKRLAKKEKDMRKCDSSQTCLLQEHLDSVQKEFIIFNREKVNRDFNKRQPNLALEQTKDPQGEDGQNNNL", "settings": "at 10 µM"}, "[5]": {"molecular_target": "T2, Mitogen-activated protein kinase kinase kinase 6 (Homo sapiens) (UniProt O95382)", "T2 sequence (whole entry)": "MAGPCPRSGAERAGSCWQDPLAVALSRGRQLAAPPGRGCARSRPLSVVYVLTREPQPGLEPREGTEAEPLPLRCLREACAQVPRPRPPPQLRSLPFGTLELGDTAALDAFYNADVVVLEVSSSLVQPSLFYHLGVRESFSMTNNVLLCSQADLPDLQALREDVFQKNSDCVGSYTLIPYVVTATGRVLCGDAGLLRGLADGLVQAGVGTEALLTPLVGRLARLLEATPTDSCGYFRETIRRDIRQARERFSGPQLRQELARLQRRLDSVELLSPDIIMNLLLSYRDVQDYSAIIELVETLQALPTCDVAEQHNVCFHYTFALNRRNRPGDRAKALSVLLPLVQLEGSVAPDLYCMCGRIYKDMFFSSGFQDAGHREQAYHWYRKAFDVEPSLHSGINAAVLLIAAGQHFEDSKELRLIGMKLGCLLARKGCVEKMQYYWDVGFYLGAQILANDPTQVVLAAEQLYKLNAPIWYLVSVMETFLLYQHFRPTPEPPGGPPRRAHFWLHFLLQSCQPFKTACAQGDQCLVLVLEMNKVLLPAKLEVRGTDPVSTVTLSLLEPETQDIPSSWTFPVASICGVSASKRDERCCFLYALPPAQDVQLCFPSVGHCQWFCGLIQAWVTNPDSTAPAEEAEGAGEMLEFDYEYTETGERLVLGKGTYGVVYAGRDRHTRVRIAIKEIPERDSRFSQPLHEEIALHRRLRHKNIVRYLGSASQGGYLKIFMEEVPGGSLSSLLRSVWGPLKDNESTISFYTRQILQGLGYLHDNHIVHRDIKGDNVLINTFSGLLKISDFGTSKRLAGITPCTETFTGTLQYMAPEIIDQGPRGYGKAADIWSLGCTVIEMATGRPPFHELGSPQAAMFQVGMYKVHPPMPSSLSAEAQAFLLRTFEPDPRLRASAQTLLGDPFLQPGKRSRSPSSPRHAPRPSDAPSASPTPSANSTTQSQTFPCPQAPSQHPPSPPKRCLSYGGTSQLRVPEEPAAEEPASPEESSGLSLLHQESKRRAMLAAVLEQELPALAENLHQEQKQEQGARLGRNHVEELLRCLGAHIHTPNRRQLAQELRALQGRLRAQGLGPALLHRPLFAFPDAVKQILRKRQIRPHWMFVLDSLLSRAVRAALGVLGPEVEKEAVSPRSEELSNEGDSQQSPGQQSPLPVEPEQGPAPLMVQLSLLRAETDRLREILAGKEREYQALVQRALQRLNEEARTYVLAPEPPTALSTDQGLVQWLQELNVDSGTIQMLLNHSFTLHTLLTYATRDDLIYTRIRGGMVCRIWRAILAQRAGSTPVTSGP", "assay": "Selectivity interaction (ActivX KiNativ screen (kinase selectivity in THP-1 cell lysates)) EUB0000639a MAP3K6", "assay_type": "subcellular", "settings": "lysate, at 5 µM"}, "[6]": {"molecular_target": "Mitogen-activated protein kinase kinase kinase 11 (Homo sapiens) (UniProt Q16584)", "sequence (Q16584 whole entry, looked up)": "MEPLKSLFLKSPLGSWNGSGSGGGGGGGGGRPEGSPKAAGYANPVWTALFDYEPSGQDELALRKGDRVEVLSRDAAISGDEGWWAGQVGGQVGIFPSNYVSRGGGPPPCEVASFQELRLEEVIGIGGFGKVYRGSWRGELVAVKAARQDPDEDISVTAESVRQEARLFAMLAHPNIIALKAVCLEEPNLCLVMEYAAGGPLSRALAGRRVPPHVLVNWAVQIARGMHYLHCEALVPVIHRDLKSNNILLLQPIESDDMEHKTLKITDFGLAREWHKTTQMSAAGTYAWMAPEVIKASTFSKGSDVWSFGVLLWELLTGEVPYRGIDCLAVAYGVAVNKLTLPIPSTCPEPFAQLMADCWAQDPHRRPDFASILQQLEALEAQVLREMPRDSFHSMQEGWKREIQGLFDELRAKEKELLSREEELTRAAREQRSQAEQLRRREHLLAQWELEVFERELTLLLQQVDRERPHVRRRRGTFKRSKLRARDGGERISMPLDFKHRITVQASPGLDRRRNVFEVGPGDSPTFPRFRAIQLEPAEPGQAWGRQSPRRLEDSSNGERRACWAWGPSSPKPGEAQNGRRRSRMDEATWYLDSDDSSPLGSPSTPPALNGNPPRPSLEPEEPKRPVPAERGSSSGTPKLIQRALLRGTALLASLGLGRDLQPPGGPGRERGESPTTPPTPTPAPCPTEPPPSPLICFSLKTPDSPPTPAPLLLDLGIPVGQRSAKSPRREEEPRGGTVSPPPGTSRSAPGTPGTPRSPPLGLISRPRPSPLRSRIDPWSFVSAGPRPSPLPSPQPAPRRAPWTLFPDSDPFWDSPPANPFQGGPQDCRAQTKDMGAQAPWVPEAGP", "assay": "Selectivity interaction (KinomeScan (DiscoverX)) EUB0000655a MAP3K11", "settings": "at 10 µM"}, "[7]": {"molecular_target": "Tyrosine-protein kinase Fer (Homo sapiens) (UniProt P16591)", "sequence (P16591 whole entry, looked up)": "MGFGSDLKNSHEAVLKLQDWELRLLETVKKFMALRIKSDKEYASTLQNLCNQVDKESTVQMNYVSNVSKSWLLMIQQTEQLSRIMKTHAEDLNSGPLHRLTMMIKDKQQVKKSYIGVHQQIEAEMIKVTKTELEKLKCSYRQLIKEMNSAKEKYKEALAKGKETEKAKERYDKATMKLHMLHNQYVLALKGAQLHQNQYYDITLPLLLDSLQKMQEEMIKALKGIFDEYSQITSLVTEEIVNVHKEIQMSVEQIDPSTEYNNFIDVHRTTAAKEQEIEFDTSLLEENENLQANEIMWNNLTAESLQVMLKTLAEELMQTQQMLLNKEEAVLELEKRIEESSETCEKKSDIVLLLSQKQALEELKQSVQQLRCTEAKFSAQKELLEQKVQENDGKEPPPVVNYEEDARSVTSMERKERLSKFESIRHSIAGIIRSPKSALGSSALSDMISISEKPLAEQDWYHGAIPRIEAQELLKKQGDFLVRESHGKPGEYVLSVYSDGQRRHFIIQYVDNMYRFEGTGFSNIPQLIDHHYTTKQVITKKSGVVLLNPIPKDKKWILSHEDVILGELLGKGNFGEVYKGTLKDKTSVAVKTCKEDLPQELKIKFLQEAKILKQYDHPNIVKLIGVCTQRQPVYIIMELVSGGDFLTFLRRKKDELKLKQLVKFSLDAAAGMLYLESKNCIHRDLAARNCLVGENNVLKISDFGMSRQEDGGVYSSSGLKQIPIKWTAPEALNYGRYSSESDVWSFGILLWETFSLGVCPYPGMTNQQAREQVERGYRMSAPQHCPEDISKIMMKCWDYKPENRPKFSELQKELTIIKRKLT", "settings": "at 10 µM"}, "Insulin receptor": {"molecular_target": "Insulin receptor (Homo sapiens, UniProt P06213)", "sequence (P06213 28-758 limits assumed)": "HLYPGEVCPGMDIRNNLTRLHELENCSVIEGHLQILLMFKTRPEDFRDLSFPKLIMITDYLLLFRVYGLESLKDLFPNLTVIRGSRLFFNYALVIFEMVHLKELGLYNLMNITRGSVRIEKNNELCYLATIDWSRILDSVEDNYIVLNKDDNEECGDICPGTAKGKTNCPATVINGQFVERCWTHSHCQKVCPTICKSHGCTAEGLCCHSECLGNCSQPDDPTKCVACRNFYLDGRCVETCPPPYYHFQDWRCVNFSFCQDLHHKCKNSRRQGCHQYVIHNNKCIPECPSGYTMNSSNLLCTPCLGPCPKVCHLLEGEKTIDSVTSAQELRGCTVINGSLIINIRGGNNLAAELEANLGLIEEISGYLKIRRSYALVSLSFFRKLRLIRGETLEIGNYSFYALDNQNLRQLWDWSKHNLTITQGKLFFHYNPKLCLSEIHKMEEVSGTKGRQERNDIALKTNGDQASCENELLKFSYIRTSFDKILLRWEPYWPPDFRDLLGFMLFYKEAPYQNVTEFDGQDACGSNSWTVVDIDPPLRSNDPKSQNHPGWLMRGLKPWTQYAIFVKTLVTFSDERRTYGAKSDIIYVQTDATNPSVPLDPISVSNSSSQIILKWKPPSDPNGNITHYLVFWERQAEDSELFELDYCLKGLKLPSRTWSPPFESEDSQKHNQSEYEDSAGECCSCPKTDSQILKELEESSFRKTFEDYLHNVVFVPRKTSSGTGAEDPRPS", "sequence (P06213 763-1382 limits assumed)": "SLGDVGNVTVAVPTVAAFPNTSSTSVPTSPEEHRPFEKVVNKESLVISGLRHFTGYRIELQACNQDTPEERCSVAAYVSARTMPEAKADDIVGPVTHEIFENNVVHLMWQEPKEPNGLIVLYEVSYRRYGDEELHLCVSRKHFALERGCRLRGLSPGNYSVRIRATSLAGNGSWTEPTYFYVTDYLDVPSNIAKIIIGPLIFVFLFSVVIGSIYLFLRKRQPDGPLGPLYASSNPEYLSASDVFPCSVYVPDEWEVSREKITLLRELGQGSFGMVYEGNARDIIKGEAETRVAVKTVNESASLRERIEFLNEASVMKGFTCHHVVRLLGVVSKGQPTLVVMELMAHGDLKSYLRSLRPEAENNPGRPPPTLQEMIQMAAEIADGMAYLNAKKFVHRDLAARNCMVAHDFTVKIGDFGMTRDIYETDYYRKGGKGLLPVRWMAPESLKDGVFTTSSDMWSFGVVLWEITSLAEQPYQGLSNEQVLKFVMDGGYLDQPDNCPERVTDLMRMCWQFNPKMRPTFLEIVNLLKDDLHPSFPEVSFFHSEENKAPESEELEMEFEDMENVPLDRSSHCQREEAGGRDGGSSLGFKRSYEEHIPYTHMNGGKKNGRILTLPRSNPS", "assay": "Selectivity interaction (KinomeScan (DiscoverX)) EUB0000092b INSR", "settings": "at 10 µM"}},
  "data": [
    {"smiles": "C=CC(=O)Nc1ccc(C(=O)Nc2[nH]nc3c2CN(C(=O)N[C@H](CN(C)C)c2ccccc2)C3(C)C)cc1", "values": [
      {"measurement": "% of engagement", "setting": "[1]", "result": 2.4, "unit": "%"}
    ]},
    {"smiles": "Cc1cc(F)c(C(=O)Nc2cccc(-c3nncn3C(C)C)n2)cc1-n1cnc(C2CC2)c1", "values": [
      {"measurement": "% of control", "setting": "[2]", "result": 100, "unit": "%"}
    ]},
    {"smiles": "Cc1cc([C@@H](C)Nc2ccccc2C(=O)O)c2nc(N3CCOCC3)cc(=O)n2c1", "note": "[AZD-6482]", "values": [
      {"measurement": "% of control", "setting": "[3]", "result": 93, "unit": "%"},
      {"measurement": "% of control", "setting": "[4]", "result": 89, "unit": "%"}
    ]},
    {"smiles": "CC[C@@H]1[C@H](F)C(=O)N[C@@H]1COc1nccc2cc(C(N)=O)c(OC)cc12", "note": "[ZIMLOVISERTIB]", "values": [
      {"measurement": "% of inhibition", "setting": "[5]", "result": -27, "unit": "%"}
    ]},
    {"smiles": "CN(C)CCOc1ccc(-c2nc(-c3ccncc3)c(-c3ccc4c(c3)CC/C4=N\\O)[nH]2)cc1", "values": [
      {"measurement": "% of control", "setting": "[6]", "result": 100, "unit": "%"}
    ]},
    {"smiles": "CCN(CC)CCCCNc1ncc2cc(-c3cc(OC)cc(OC)c3)c(NC(=O)NC(C)(C)C)nc2n1", "values": [
      {"measurement": "% of control", "setting": "[7]", "result": 100, "unit": "%"}
    ]},
    {"smiles": "CCC(=O)N1CCN(c2ccc(-n3c(=O)ccc4cnc5ccc(-c6cnc7ccccc7c6)cc5c43)cc2C(F)(F)F)CC1", "values": [
      {"measurement": "% of control", "setting": "Insulin receptor", "result": 7.6, "unit": "%"}
    ]}
  ]
}
